This note sets out measurements from patent US5270308A, “1,3-benzoxazine derivatives, their production and use” (Takeda Chemical Industries, Ltd., priority 1990, dated 1993).

Assay [1] deals with spontaneously hypertensive rat. As to the kind of experiment: Hypotensive activity in spontaneously hypertensive rats. The class given is in vivo. The conditions noted are these: po, orally, conscious spontaneously hypertensive rat, male, 20 to 23 weeks old, read-out: maximum effect (%) (mean ratio of maximum decrease in the blood pressure). As to the method: Hypotensive Activity in Rats
Method: A spontaneously hypertensive rat (male, 20 to 23 weeks old) was operated in advance for retaining a cannula for blood pressure measurement in the left femoral artery. The experiment was carried out for the rat when waking on the next day after the operation. The cannula was connected with a transducer (Specrtramed) upon the experiment and the blood pressure was measured (Nippon Koden, Japan). A test compound was suspended in gum arabic and the suspension was administered orally.

Assay [2] relates to Rat Aorta Sample (constriction by KCl). Kind of assay: Vasorelaxation activity in rat aorta sample: effect on constriction caused by potassium chloride (KCl). It is filed as cell-based, Male Wister rats. Conditions: KCl (80 mM), rat aorta ring, read-out: constriction inhibitory ratio (%). How it is done: (§1) Vasorelaxation Activity in Rat Aorta Sample
Effect on Relaxation Caused by Potassium Chloride (KCl)
Method: According to the same manner as that described in Experiment 1, this experiment was carried out except that KCl (80 mM) was used instead of TEA and Ba.
Result: The results are shown in Table 4 in terms of the inhibitory ratio of the test compound.

Assay [3] relates to Rat Aorta Sample (constriction by TEA and Ba). Kind of assay: Vasorelaxation activity in rat aorta sample: effect on constriction caused by tetraethylammonium chloride (TEA) and barium chloride (Ba). The class given is cell-based, Male Wister rats. The conditions noted are these: TEA (30 to 45 mM) and Ba (0.3 mM), rat aorta ring, read-out: constriction inhibitory ratio (%). How it is done:
as §1
Effect on Relaxation Caused by Tetraethylammonium Chloride (TEA) and Barium Chloride (Ba)
Method: Male Wister rats (10 to 13 weeks old) were used for the experiment. After dehematization, the aorta was excised and a ring sample (5 mm) was prepared. The sample was suspended in a bath filled with oxygenated (95% O2 -5% CO2) Krebs solution (36° C.). The ring sample was fixed at one end and the other end was connected to a transducer (Nippon Koden, Japan) for recording tension and the tension was measured. After a stabilization period of 1 hour, TEA (30 to 45 mM) and Ba (0.3 mM) were added to the bath to cause vasoconstriction. After the constriction has reached a steady state (after about 15 minutes), a test compound was added to the bath and its relaxation activity was measured.
Result: The results are shown in Table 3 in terms of the inhibitory ratio of the test compound.

`CC1(C)N=C(c2cccc[n+]2[O-])c2cc(C#N)ccc2O1` [Compound 20, 2-(6-cyano-2,2-dimethyl-2H-1,3-benzoxazin-4-yl)pyridine N-oxide]: in assay [1], the inhibition in vivo at 1 mg/kg is 39%. Besides, in assay [2], the inhibition at 3 µM is -4% and the inhibition at 10 µM was -2%. Besides, in assay [3], the inhibition at 3 µM amounted to 35% and the inhibition at 10 µM amounted to 81%.

Take `CC1(C)N=C(c2cccc[n+]2[O-])c2cc(Br)ccc2O1` [Compound 23, 2-(6-bromo-2,2-dimethyl-2H-1,3-benzoxazin-4-yl)pyridine N-oxide]: the inhibition in vivo at 1 mg/kg in assay [1] stood at 32%. Besides, in assay [2], the inhibition at 1 µM is -1%, the inhibition at 3 µM worked out at 1% and the inhibition at 10 µM turned out to be 4%. Further, in assay [3], the inhibition at 1 µM worked out at 19%, the inhibition at 3 µM came out at 82% and the inhibition at 10 µM was found to be 100%.

For `CC1(C)N=C(c2cccc[n+]2[O-])c2cc(Cl)ccc2O1` [Compound 24, 2-(6-chloro-2,2-dimethyl-2H-1,3-benzoxazin-4-yl)pyridine N-oxide], the inhibition in vivo at 1 mg/kg in assay [1] was determined as 38%. In addition, the results for the inhibition at 10 µM in assay [2] and in assay [3] were -11% and 94%, respectively. In addition, the inhibition at 3 µM in assay [3] stood at 76%.

With `CC1(C)N=C(c2cccc[n+]2[O-])c2cc([N+](=O)[O-])ccc2O1` [Compound 29, 2-(2,2-dimethyl-6-nitro-2H-1,3-benzoxazin-4-yl)pyridine N-oxide], the inhibition in vivo at 1 mg/kg in assay [1] came out at 61%. The inhibition at 1 µM in assay [2] is -8%; in assay [3], 74%.

For the molecule `CCOc1ccc[n+]([O-])c1C1=NC(C)(C)Oc2ccc(C#N)cc21` [Compound 38, 2-(6-cyano-2,2-dimethyl-2H-1,3-benzoxazin-4-yl)-3-ethoxypyridine N-oxide], in assay [1], the inhibition in vivo at 1 mg/kg is 58%.

In the case of `Cc1cc2c(cc1Br)C(c1cccc[n+]1[O-])=NC(C)(C)O2` [Compound 47, 2-(6-bromo-2,2,7-trimethyl-2H-1,3-benzoxazin-4-yl)pyridine N-oxide], the inhibition at 1 µM is -1% in assay [2] and 72% in assay [3]. Also, the inhibition at 3 µM in assay [2] stood at 2%; in assay [3] it was 100%.

For `Cc1cc2c(cc1[N+](=O)[O-])C(c1cccc[n+]1[O-])=NC(C)(C)O2` [Compound 49, 2-(2,2,7-trimethyl-6-nitro-2H-1,3-benzoxazin-4-yl)pyridine N-oxide], in assay [2], the inhibition at 1 µM was -7%, the inhibition at 3 µM is -6% and the inhibition at 10 µM is -3%. In addition, in assay [3], the inhibition at 1 µM amounted to 28%, the inhibition at 3 µM is 77% and the inhibition at 10 µM turned out to be 86%.

Consider `C#Cc1ccc2c(c1)C(c1cccc[n+]1[O-])=NC(C)(C)O2` [Compound 53, 2-(6-ethynyl-2,2-dimethyl-2H-1,3-benzoxazin-4-yl)pyridine N-oxide], for which the inhibition at 10 µM is -4% in assay [2] and 89% in assay [3].

`CC(=O)c1ccc2c(c1)C(c1cccc[n+]1[O-])=NC(C)(C)O2` [Compound 56, 2-(6-acetyl-2,2-dimethyl-2H-1,3-benzoxazin-4-yl)pyridine N-oxide]: the inhibition in vivo at 1 mg/kg in assay [1] came out at 22%.

Take `Cc1cc2c(cc1C#N)C(c1cccc[n+]1[O-])=NC(C)(C)O2` [Compound 65, 2-(6-cyano-2,2,7-trimethyl-2H-1,3-benzoxazin-4-yl)pyridine N-oxide]: in assay [2], the inhibition at 3 µM is -2% and the inhibition at 10 µM is 0%. Further, in assay [3], the inhibition at 3 µM turned out to be 48% and the inhibition at 10 µM is 74%.

Regarding `CC1(C)N=C(c2cccc[n+]2[O-])c2cc(OC(F)(F)F)ccc2O1` [Compound 69, 2-(6-trifluoromethoxy-2,2-dimethyl-2H-1,3-benzoxazin-4-yl)pyridine N-oxide], the inhibition in vivo at 1 mg/kg in assay [1] is 44%. In addition, the results for the inhibition at 3 µM in assay [2] and in assay [3] were -1% and 45%, respectively. Further, the inhibition at 10 µM was 2% in assay [2] and 81% in assay [3].

With `CC1(C)N=C(c2cccc[n+]2[O-])c2cc(C(F)(F)F)ccc2O1` [Compound 75, 2-(6-trifluoromethyl-2,2-dimethyl-2H-1,3-benzoxazin-4-yl)pyridine N-oxide], in assay [1], the inhibition in vivo at 1 mg/kg turned out to be 54%. Further, in assay [2], the inhibition at 1 µM was -2%, the inhibition at 3 µM came to 1% and the inhibition at 10 µM was 2%. Besides, in assay [3], the inhibition at 1 µM came to 38%, the inhibition at 3 µM turned out to be 91% and the inhibition at 10 µM stood at 100%.

As for `CC1(C)N=C(c2cccc[n+]2[O-])c2cc(C(F)(F)C(F)(F)F)ccc2O1` [Compound 77, 2-(6-pentafluoroethyl-2,2-dimethyl-2H-1,3-benzoxazin-4-yl)pyridine N-oxide], in assay [1], the inhibition in vivo at 1 mg/kg came out at 25%. For the same molecule, the inhibition at 3 µM was found to be 3% in assay [2] and 45% in assay [3]. For the same molecule, the inhibition at 10 µM in assay [2] turned out to be 10%; in assay [3] it was 98%.

Regarding `CC1(C)N=C(c2cccc[n+]2[O-])c2cc(Cl)c(Cl)cc2O1` [Compound 79, 2-(6,7-dichloro-2,2-dimethyl-2H-1,3-benzoxazin-4-yl)pyridine N-oxide], the inhibition in vivo at 1 mg/kg in assay [1] was determined as 36%. Moreover, in assay [2], the inhibition at 1 µM was -5%, the inhibition at 3 µM was -1% and the inhibition at 10 µM came to 3%. In assay [3], the inhibition at 1 µM worked out at 24%, the inhibition at 3 µM amounted to 57% and the inhibition at 10 µM worked out at 65%.

Consider `CC1(C)N=C(c2cccc[n+]2[O-])c2cc(C#N)c(Cl)cc2O1` [Compound 91, 2-(7-chloro-6-cyano-2,2-dimethyl-2H-1,3-benzoxazin-4-yl)pyridine N-oxide], for which, in assay [1], the inhibition in vivo at 1 mg/kg turned out to be 39%.

For `CC1(C)N=C(c2cccc[n+]2[O-])c2cc(Br)c(Br)cc2O1` [Compound 93, 2-(6,7-dibromo-2,2-dimethyl-2H-1,3-benzoxazin-4-yl)pyridine N-oxide], the inhibition in vivo at 1 mg/kg in assay [1] was 22%. In assay [3], the inhibition at 1 µM is 52% and the inhibition at 3 µM was found to be 71%.

Turning to `CC1(C)N=C(c2cccc[n+]2[O-])c2cc(Br)c(F)cc2O1` [Compound 95, 2-(6-bromo-7-fluoro-2,2-dimethyl-2H-1,3-benzoxazin-4-yl)pyridine N-oxide], in assay [1], the inhibition in vivo at 1 mg/kg worked out at 55%.

For `CC1(C)N=C(c2cccnc2)c2cc(Br)ccc2O1` [Compound 98], in assay [2], the inhibition at 1 µM was -4% and the inhibition at 3 µM was -6%.

Turning to `CCOc1ccc[n+]([O-])c1C1=NC(C)(C)Oc2cc(Cl)c(Br)cc21` [Compound 117, 2-(6-bromo-7-chloro-2,2-dimethyl-2H-1,3-benzoxazin-4-yl)-3-ethoxypyridine N-oxide], the inhibition in vivo at 1 mg/kg in assay [1] was 54%.

For `COc1ccc[n+]([O-])c1C1=NC(C)(C)Oc2ccc(C(F)(F)F)cc21` [Compound 118, 2-(6-trifluoromethyl-2,2-dimethyl-2H-1,3-benzoxazin-4-yl)-3-methoxypyridineN-oxide], the inhibition in vivo at 1 mg/kg in assay [1] was 43%.

Turning to `CCOc1ccc[n+]([O-])c1C1=NC(C)(C)Oc2ccc(Br)cc21` [Compound 119, 2-(6-bromo-2,2-dimethyl-2H-1,3-benzoxazin-4-yl)-3-ethoxypyridine N-oxide], in assay [1], the inhibition in vivo at 1 mg/kg was determined as 61%.

As for `CCOc1ccc[n+]([O-])c1C1=NC(C)(C)Oc2ccc(C(F)(F)F)cc21` [Compound 124, 3-ethoxy-2-(6-trifluoromethyl-2,2-dimethyl-2H-1,3-benzoxazin-4-yl)pyridine N-oxide], the inhibition in vivo at 1 mg/kg in assay [1] came to 48%.

On to `COc1ccc[n+]([O-])c1C1=NC(C)(C)Oc2ccc(C#N)cc21` [Compound 125, 2-(6-cyano-2,2-dimethyl-2H-1,3-benzoxazin-4-yl)-3-methoxypyridine N-oxide], for which the inhibition in vivo at 1 mg/kg in assay [1] is 23%.

Consider `COc1ccc[n+]([O-])c1C1=NC(C)(C)Oc2cc(Cl)c(Br)cc21` [Compound 126, 2-(6-bromo-7-chloro-2,2-dimethyl-2H-1,3-benzoxazin-4-yl)-3-methoxypyridine N-oxide], for which the inhibition in vivo at 1 mg/kg in assay [1] was 49%.

Regarding `COc1ccc[n+]([O-])c1C1=NC(C)(C)Oc2ccc(Br)cc21` [Compound 129, 2-(6-bromo-2,2-dimethyl-2H-1,3-benzoxazin-4-yl)-3-methoxypyridine N-oxide], the inhibition in vivo at 1 mg/kg in assay [1] came to 55%.

Turning to `CC1(C)N=C(c2c(O)ccc[n+]2[O-])c2cc(Br)ccc2O1` [Compound 143, 2-(6-bromo-2,2-dimethyl-2H-1,3-benzoxadin-4-yl)-3-hydroxypyridine N-oxide], the inhibition in vivo at 1 mg/kg in assay [1] came to 54%.
